Laboratory results from patent publication US9732156B2, “Methods of treating rheumatoid arthritis using antibodies to matrix metalloproteinase 9” (Gilead Biologics, Inc., priority 2012, dated 2017).
Blank lines part the entries; values can stand above or below the molecule they belong to.

Key:
[1] = system: Lewis rats; conditions: rat, in vivo
Experimental: AB0041 was evaluated for safety in Lewis rats in comparison to the pan-MMP inhibitor, Marimastat, in a 28-day study.
Six rats per group were intravenously administered twice per week with either AB0041 at 50 mg/kg or Vehicle-A (10 mM sodium phosphate, pH 6.5, 140 mM sodium chloride, 0.01% Tween20). In addition, six rats per group were treated with Marimastat or Vehicle-M (50% DMSO/50% water) through a surgically implanted subcutaneous Alzet pump (Alzet, Cupertino, Calif.), which delivered at a rate of 2.5 μl/hour for a period of 28 days. The Marimastat release rate was between 6.8 to 5.7 mg/kg/day.
Animals were observed and scored daily for signs of MSS, such as reluctance to move and avoidance of the use of the hind feet. The following system was used to score resting posture, gait and willingness to move: resting posture was scored as 0 (normal), 1 (resting on one foot) or 2 (resting on neither one foot nor two feet). Gait was scored as either 0 (normal), 1 (avoids use of one hind foot) or 2 (avoids use of both hind feet). Willingness-to-move upon stimulation was scored as either 0 (normal movement), 1 (somewhat reluctant to move), 2 (moderately reluctant to move) or 3 (very reluctant to move). In addition, the body weights were recorded twice weekly.
Total scores were calculated as the sum of gait score, resting posture score and willingness-to-move score for each animal. Mean total scores per group were calculated as the average of the total scores from all individual animals per group per day.
Serum was collected from all rats on one day before and days 1, 7, 10, 14, 17, 21, 24, 28 post administration. Serum was centrifuged at 10,000×g for 10 minutes and collected for storage at −20° C. Serum was subject to multianalyte serum protein analysis (RodentMAPv2.0, IDEXX Laboratories).
Tissues and limbs from the rats were harvested and fixed in 10% neutral buffered formalin for histopathologic analysis using hematoxylin and eosin (H&E).

[2] = system: UC; conditions: cited from earlier work
[3] = system: collagen-induced arthritis; assay: Collagen-induced arthritis (CIA) rat model of established disease; assay type: in vivo; conditions: terminal serum, ELISA
Experimental: This example provides additional characterizations of the animals in example 7 that were treated with either vehicle, AB0041 (in the rat model) or AB0046 (in the mouse model) at 2, 10, or 50 mg/Kg, Enbrel at 10 mg/Kg, or methotrexate (MTX) at 0.5 mg/Kg.
In addition to clinical scoring in Table 6 that was conducted in example 7, paw swelling, ankle diameter and body weights of the treated animals were measured. The measurements were conducted once a week before randomization and three times a week thereafter.
In addition, hind limbs were examined microscopically for soft-tissue changes (edema, tissue/vessel necrosis, inflammatory cell infiltration, and fibroplasias) and cartilage and bone changes (cartilage erosion, bone erosion, periosteal bone formation, synovitis, pannus formation, and joint destruction). […] The severity scores were based on global changes in each limb.
For anti-TNF-alpha scoring, the entire region of the limb anterior to the tarsal-metatarsal joint was scored. Anti-CD68 staining was evaluated using 3-4 images per limb of synovial membranes in the joints formed by the talus bone, with the scores of each membrane averaged and the value assigned as the overall inflammation score. […] Also, MMP9-expressing cells were identified as osteoclasts and cells of the monocyte/macrophage lineage.
Further, serum panel analyses of terminal serum samples were characterized using ELISA. […] AB0046 titers were measured in terminal serum samples.

[4] = system: DSS-induced colitis; assay: DSS-induced colitis model, treatment of established disease (Example 4); assay type: in vivo, mouse
Excerpt: The dextran sodium sulfate (DSS)-induced model of colitis is an accepted model for evaluation of inflammatory bowel disease therapeutics. In this model, oral administration of DSS to mice or rats results in damage to the colonic mucosa. Animals receiving DSS develop bloody diarrhea and lose weight. The inflammation and tissue degradation observed in this model is restricted to the mucosa and generally affects the entire colon. […] The localization of disease and the pathology observed in this model is considered to be reminiscent of human ulcerative colitis (UC), including similar inflammatory cell infiltrate, ulceration, and crypt abscesses.
AB0046 was used in the DSS colitis model (in a 14-day treatment model). Treatment began after 5 days of oral exposure to 3% DSS in drinking water, according to the following experimental design: disease induction with 3% DSS was carried out beginning at day 0 through day 5, with treatment beginning at day 6 (treatment details for animals in groups 1-5 given in Table 2, below); animals were sacrificed at day 14. Etanercept (marketed under the trade name ENBREL®) was used as a reference compound for the therapeutic effect of anti-TNFα therapy in this model. AC-1, an irrelevant antibody of matched isotype (IgG1), was used as a control.
The course of disease was evaluated by video endoscopy (at days 6, 10, and 14), animal weight measurements, observation of stool consistency, and post-study histopathology analysis of colons.
Video endoscopy of the lower colon was performed in a blinded fashion using a small animal endoscope; colitis was scored visually on a scale of 1-4 based on the degree of ulceration, friability, and vascularity present in the tissue. Each mouse was assigned a single score corresponding to the most severe damage observed throughout the entire length of the colon examined.
At study termination, the majority of the distal colon was excised from each animal, formalin-fixed, then embedded in paraffin and sectioned for histology. Slides were stained with hematoxylin and eosin and examined by a board-certified veterinary pathologist blinded as to treatment groups. Tissues were scored for inflammation, edema, and mucosal necrosis according to the scoring scale of 1-4 for each parameter. Sum pathology scores were calculated by summing the three individual parameter score means (inflammation, edema and necrosis).
Body weight and the incidence of diarrhea were recorded daily over the course of the study. The evaluation of body weight changes was performed by calculating the area under the curve (AUC) with the trapezoidal rule method; a similar calculation of AUC for stool consistency was performed by assigning incidence of diarrhea a score of 100 and lack of diarrhea a score of 0.
A trend for reduction of systemic disease-associated cytokines by AB0046 was observed. […] Serum MMP-9 levels were not induced (i.e., no difference between no DSS and vehicle groups; interference by drug antibody cannot be ruled out for MMP9 serum level measurements).

- average daily total MSS score ([1]; Lewis, 18 day): above 4.0
- average MSS score ([1]; Lewis, 25 day): 5.8
- fibrosis and synovitis in limbs [1]: Fibrosis and synovitis were observed
- rats with slight limping, avoidance of one hind foot (gait score=1) [1]: five
- severity of fibrosis [1]: mild to severe
- severity of synovitis [1]: mild
Molecule: CNC(=O)[C@@H](NC(=O)[C@H](CC(C)C)[C@H](O)C(=O)NO)C(C)(C)C [Marimastat]
- H&E staining of hind knee joints [1]: histopathological evidence of fibroplasia was seen

Molecule: Infliximab: chimeric therapeutic anti-TNF-alpha antibody Remicade (infliximab)
- patients achieving long-term remission completely free of corticosteroids [2]: 26%
- patients achieving remission by week 8 and remaining in remission through 54 weeks [2]: 20%
- patients failing to maintain response over 30 or 54 weeks [2]: approximately 60%

Molecule: CN(Cc1cnc2nc(N)nc(N)c2n1)c1ccc(C(=O)N[C@@H](CCC(=O)O)C(=O)O)cc1 [methotrexate, reference compound]
- serum markers (TIMP-1, GM-CSF, MIP-2, MIP-1β, M-CSF-1, OSM, CXCL10, MCP-5, IL-12p70, INF-γ, IL-12, IL-7) [3]: consistent increase in these markers

Molecule: ENBREL [reference compound]
- reduction of the incidence of diarrhea ([4]; AUC, did not reach statistical significance): similar
- mean endoscopy score ([4]; Day 14 (and Day 10), vs Vehicle and AC-1, AB0046 30 mg/kg IP, ENBREL 10 mg/kg IP): significant improvement in endoscopy scores
- histopathology: inflammation, edema, mucosal necrosis ([4]; colons at termination, compared to vehicle): significantly reduced all three aspects of disease pathology
- MMP9 expression in colon by IHC ([4]; three colons per group): Reduction of MMP9
- serum markers (TIMP-1, GM-CSF, MIP-2, MIP-1β, M-CSF-1, OSM, CXCL10, MCP-5, IL-12p70, INF-γ, IL-12, IL-7) [3]: No reduction of serum markers
